Results taken from US20250320213A1, “Nitrogen-Containing Heterocyclic Compounds” (Pfizer Inc., priority 2024, published 2025).

Tests used:
STAT6 = target: T1, STAT6 (Homo sapiens, UniProt P42226); experiment: STAT6 Reporter Luciferase Assay (IL-13 stimulated HaCaT keratinocyte NanoLuc reporter cells); format: cell-based; conditions: IL-13 stimulated HaCaT STAT6 NanoLuc reporter cells; read-out: Reporter EC50
T1 construct: stably transfected HaCaT keratinocyte cell line, which expresses NanoLuc luciferase reporter gene under the transcriptional control of the STAT6 responsive promoter; endogenous in cells; host or cells: HaCaT keratinocyte reporter cell line (stably transfected with a NanoLuc reporter)
T1 sequence (P42226 1-847): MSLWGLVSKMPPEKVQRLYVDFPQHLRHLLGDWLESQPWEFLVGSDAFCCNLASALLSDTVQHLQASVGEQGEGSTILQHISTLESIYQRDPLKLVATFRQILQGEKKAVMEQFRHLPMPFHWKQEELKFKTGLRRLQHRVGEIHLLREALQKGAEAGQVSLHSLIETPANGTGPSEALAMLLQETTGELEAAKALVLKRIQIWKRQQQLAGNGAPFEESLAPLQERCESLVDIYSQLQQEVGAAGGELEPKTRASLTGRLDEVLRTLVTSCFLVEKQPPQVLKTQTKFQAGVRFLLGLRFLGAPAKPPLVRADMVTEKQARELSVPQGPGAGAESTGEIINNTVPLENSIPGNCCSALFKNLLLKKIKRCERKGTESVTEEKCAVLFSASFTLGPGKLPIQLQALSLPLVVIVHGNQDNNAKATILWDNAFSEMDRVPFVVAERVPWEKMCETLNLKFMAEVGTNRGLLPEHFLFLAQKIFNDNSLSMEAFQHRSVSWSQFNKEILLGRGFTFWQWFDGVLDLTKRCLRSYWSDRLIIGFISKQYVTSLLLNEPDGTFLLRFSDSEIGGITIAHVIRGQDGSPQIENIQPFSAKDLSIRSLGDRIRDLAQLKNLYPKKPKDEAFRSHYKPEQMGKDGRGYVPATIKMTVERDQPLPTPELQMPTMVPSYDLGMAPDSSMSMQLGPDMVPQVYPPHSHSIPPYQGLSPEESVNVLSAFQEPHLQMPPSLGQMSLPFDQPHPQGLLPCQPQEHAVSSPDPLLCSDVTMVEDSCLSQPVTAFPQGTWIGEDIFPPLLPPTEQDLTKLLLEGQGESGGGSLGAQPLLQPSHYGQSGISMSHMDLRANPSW
Summary of the method: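 IL-13 (0.12 nM, 4 h) stimulated STAT6 reporter activity in HaCaT cells after a 2 h compound pre-incubation; NanoLuc signal was measured.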

[1] = tested on: CCL17 secretion in peripheral human whole blood; experiment: Human Whole Blood (HWB) CCL17 TR-FRET Assay (IL-13 stimulated CCL17 secretion); format: cell-based; conditions: Homo sapiens, 48 h, human whole blood
Summary of the method: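 IC50 values reflect inhibition of IL-13-driven CCL17 release in human whole blood. Blood was preincubated with compound 2 h, stimulated 48 h at 37 °C with IL-13 (10 ng/mL final), and serum CCL17 was measured by TR-FRET.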

Compound	EC50 (STAT6) [nM]	IC50 ([1]; 10 ng/mL IL13, 48 hours) [nM]	IC50 ([1]; IL-13 10 ng/mL) [nM]
CC(C)n1nc(C(=O)NCc2ccc(NC(=O)N(C)C)cc2)c2c1[C@@H](C)CN(c1ccc(C(=O)N(C)CC3CCN(C)CC3)cc1)C2 [Example 635, (S)-N-(4-(3,3-dimethylureido)benzyl)-1-isopropyl-7-methyl-5-(4-(methyl((1-methylpiperidin-4-yl)methyl)carbamoyl)phenyl)-4,5,6,7-tetrahydro-1H-pyrazolo[4,3-c]pyridine-3-carboxamide]	14	71	–
CC(C)n1nc(C(=O)NCc2ccc(NC(=O)N(C)C)cc2)c2c1[C@@H](C)CN(c1ccc(C(=O)N(C)CCN3CCOCC3)cc1)C2 [Example 636, (S)-N-(4-(3,3-dimethylureido)benzyl)-1-isopropyl-7-methyl-5-(4-(methyl(2-morpholinoethyl)carbamoyl)phenyl)-4,5,6,7-tetrahydro-1H-pyrazolo[4,3-c]pyridine-3-carboxamide]	3	33	–
CC(C)n1nc(C(=O)NCc2ccc(NC(=O)N(C)C)cc2)c2c1[C@@H](C)CN(c1ccc(C(=O)N(C)CC3CCNCC3)cc1)C2 [Example 637, (S)-N-(4-(3,3-dimethylureido)benzyl)-1-isopropyl-7-methyl-5-(4-(methyl(piperidin-4-ylmethyl)carbamoyl)phenyl)-4,5,6,7-tetrahydro-1H-pyrazolo[4,3-c]pyridine-3-carboxamide]	13	48	–
COCC1(N)CCN(C(=O)Nc2ccc(CNC(=O)c3nn(C(C)C)c4c3CN(c3ccc(C(=O)N(C)C)cc3)C[C@@H]4C)cc2)CC1 [Example 638, (S)-N-(4-(4-amino-4-(methoxymethyl)piperidine-1-carboxamido)benzyl)-5-(4-(dimethylcarbamoyl)phenyl)-1-isopropyl-7-methyl-4,5,6,7-tetrahydro-1H-pyrazolo[4,3-c]pyridine-3-carboxamide]	1	4	–
COCC1(N)CCN(C(=O)Nc2ccc(CNC(=O)c3nn(C(C)C)c4c3CN(c3ccc(C(=O)N(C)C)cc3)C[C@@H]4C)cc2F)CC1 [Example 639, (S)-N-(4-(4-amino-4-(methoxymethyl)piperidine-1-carboxamido)-3-fluorobenzyl)-5-(4-(dimethylcarbamoyl)phenyl)-1-isopropyl-7-methyl-4,5,6,7-tetrahydro-1H-pyrazolo[4,3-c]pyridine-3-carboxamide]	1	8	–
CC(C)n1nc(C(=O)NCc2ccc(NC(=O)N3CCN(C)CC3)cc2)c2c1[C@@H](C)CN(c1ccc(-c3ncnn3C3CC3)cn1)C2 [Example 649, (S)-5-(5-(1-cyclopropyl-1H-1,2,4-triazol-5-yl)pyridin-2-yl)-1-isopropyl-7-methyl-N-(4-(4-methylpiperazine-1-carboxamido)benzyl)-4,5,6,7-tetrahydro-1H-pyrazolo[4,3-c]pyridine-3-carboxamide]	1	24	–
CC(C)n1nc(C(=O)NCc2ccc(NC(=O)N3CCNCC3)nc2)c2c1[C@@H](C)CN(c1ccc(C(=O)N(C)C)cc1)C2 [Example 699, (S)-5-(4-(dimethylcarbamoyl)phenyl)-1-isopropyl-7-methyl-N-((6-(piperazine-1-carboxamido)pyridin-3-yl)methyl)-4,5,6,7-tetrahydro-1H-pyrazolo[4,3-c]pyridine-3-carboxamide]	4	27	–
CC(C)n1nc(C(=O)NCc2ccc(NC(=O)N3CCNCC3)cn2)c2c1[C@@H](C)CN(c1ccc(C(=O)N(C)C)cc1)C2 [Example 700, (S)-5-(4-(dimethylcarbamoyl)phenyl)-1-isopropyl-7-methyl-N-((5-(piperazine-1-carboxamido)pyridin-2-yl)methyl)-4,5,6,7-tetrahydro-1H-pyrazolo[4,3-c]pyridine-3-carboxamide]	5	22	–
CC(C)n1nc(C(=O)NCc2ccc(NC(=O)N(C)C)cc2)c2c1[C@@H](C)CN(c1ccc(C(=O)N3CCN(C)CC3)cc1)C2 [Example 706, (S)-N-(4-(3,3-dimethylureido)benzyl)-1-isopropyl-7-methyl-5-(4-(4-methylpiperazine-1-carbonyl)phenyl)-4,5,6,7-tetrahydro-1H-pyrazolo[4,3-c]pyridine-3-carboxamide]	27	–	191
COCCC1(N)CCN(C(=O)Nc2ccc(CNC(=O)c3nn(C(C)C)c4c3CN(c3ccc(C(=O)N(C)C)cc3)C[C@@H]4C)cc2)CC1 [Example 708, (S)-N-(4-(4-amino-4-(2-methoxyethyl)piperidine-1-carboxamido)benzyl)-5-(4-(dimethylcarbamoyl)phenyl)-1-isopropyl-7-methyl-4,5,6,7-tetrahydro-1H-pyrazolo[4,3-c]pyridine-3-carboxamide]	1	–	8
CC(C)n1nc(C(=O)NCc2ccc(NC(=O)N3CCN(C)CC3)c(F)c2)c2c1[C@@H](C)CN(c1ccc(C(=O)N3Cc4cccnc4C3)cc1)C2 [Example 711, (S)-5-(4-(6,7-dihydro-5H-pyrrolo[3,4-b]pyridine-6-carbonyl)phenyl)-N-(3-fluoro-4-(4-methylpiperazine-1-carboxamido)benzyl)-1-isopropyl-7-methyl-4,5,6,7-tetrahydro-1H-pyrazolo[4,3-c]pyridine-3-carboxamide]	0.5	–	18
CC(C)n1nc(C(=O)NCc2ccc(NC(=O)N3CCN(C)CC3)cc2Cl)c2c1[C@@H](C)CN(c1ccc(C(=O)N(C)C)cc1)C2 [Example 712, (S)-N-(2-chloro-4-(4-methylpiperazine-1-carboxamido)benzyl)-5-(4-(dimethylcarbamoyl)phenyl)-1-isopropyl-7-methyl-4,5,6,7-tetrahydro-1H-pyrazolo[4,3-c]pyridine-3-carboxamide]	3	–	64
CC(C)n1nc(C(=O)NCc2ccc(NC(=O)N3CCN(C)CC3)c(F)c2)c2c1[C@@H](C)CN(c1ccc(-n3ccccc3=O)cc1)C2 [Example 715, (S)-N-(3-fluoro-4-(4-methylpiperazine-1-carboxamido)benzyl)-1-isopropyl-7-methyl-5-(4-(2-oxopyridin-1(2H)-yl)phenyl)-4,5,6,7-tetrahydro-1H-pyrazolo[4,3-c]pyridine-3-carboxamide]	5	–	68
CCn1nc(C(=O)NCc2ccc(NC(=O)N3CC(NC)C3)c(F)c2)c2c1[C@@H](C)CN(c1ccc(C(=O)N(C)C)cc1)C2 [Example 716, (S)-5-(4-(dimethylcarbamoyl)phenyl)-1-ethyl-N-(3-fluoro-4-(3-(methylamino)azetidine-1-carboxamido)benzyl)-7-methyl-4,5,6,7-tetrahydro-1H-pyrazolo[4,3-c]pyridine-3-carboxamide]	3	–	25
CC(C)n1nc(C(=O)NCc2ccc(NC(=O)N3CCN(C)CC3)c(Cl)c2)c2c1[C@@H](C)CN(c1ccc(C(=O)N(C)C)cc1)C2 [Example 717, (S)-N-(3-chloro-4-(4-methylpiperazine-1-carboxamido)benzyl)-5-(4-(dimethylcarbamoyl)phenyl)-1-isopropyl-7-methyl-4,5,6,7-tetrahydro-1H-pyrazolo[4,3-c]pyridine-3-carboxamide]	3	–	29
CC(C)n1nc(C(=O)NCc2ccc(NC(=O)N3CCN(C)CC3)cc2F)c2c1[C@@H](C)CN(c1ccc(C(=O)N(C)C)cc1)C2 [Example 718, (S)-5-(4-(dimethylcarbamoyl)phenyl)-N-(2-fluoro-4-(4-methylpiperazine-1-carboxamido)benzyl)-1-isopropyl-7-methyl-4,5,6,7-tetrahydro-1H-pyrazolo[4,3-c]pyridine-3-carboxamide]	1	–	18
CC(C)n1nc(C(=O)NCc2ccc(C(N)=O)cc2)c2c1[C@@H](C)CN(c1ncc(-c3nccn3C)cn1)C2 [Example 719, (S)-N-(4-carbamoylbenzyl)-1-isopropyl-7-methyl-5-(5-(1-methyl-1H-imidazol-2-yl)pyrimidin-2-yl)-4,5,6,7-tetrahydro-1H-pyrazolo[4,3-c]pyridine-3-carboxamide]	1000	–	3690
